Measured values: patent US12448394B2, “Heterocyclic pyrazole derivatives as type III receptor tyrosine kinase inhibitors” (DEVELOPMENT CENTER FOR BIOTECHNOLOGY, priority 2019, dated 2025)

Assays:
[1] = target: T1, FLT3 kinase (Homo sapiens, UniProt P36888); experiment: FLT3 kinase assay (AlphaScreen); assay type: biochemical; details: read-out: Ranking of IC50 values, FLT3
T1 construct: purchased SignalChem
T1 sequence (P36888 27-993): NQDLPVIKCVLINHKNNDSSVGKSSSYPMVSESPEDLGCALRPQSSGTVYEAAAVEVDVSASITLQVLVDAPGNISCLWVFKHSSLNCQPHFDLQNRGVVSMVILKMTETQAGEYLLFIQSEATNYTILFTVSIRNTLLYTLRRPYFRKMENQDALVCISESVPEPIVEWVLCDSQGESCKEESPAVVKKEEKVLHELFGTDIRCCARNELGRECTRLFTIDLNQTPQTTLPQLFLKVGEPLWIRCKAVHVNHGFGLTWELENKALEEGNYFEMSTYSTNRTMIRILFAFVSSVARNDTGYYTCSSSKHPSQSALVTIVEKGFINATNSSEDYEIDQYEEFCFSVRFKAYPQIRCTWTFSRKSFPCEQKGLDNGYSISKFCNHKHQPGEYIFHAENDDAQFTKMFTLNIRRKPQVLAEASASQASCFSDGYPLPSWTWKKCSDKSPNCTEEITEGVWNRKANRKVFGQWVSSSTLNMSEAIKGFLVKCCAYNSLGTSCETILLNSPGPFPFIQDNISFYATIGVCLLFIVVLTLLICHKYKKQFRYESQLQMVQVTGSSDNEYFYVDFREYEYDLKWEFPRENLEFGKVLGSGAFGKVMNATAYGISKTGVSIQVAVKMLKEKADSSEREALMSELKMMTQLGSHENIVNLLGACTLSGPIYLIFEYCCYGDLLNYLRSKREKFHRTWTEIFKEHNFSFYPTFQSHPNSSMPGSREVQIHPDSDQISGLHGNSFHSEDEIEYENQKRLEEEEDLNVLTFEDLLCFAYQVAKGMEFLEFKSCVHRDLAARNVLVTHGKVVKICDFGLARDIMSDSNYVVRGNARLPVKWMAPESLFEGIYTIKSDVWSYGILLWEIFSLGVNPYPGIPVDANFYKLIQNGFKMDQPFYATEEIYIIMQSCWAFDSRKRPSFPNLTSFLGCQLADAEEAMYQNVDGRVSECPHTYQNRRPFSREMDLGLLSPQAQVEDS
Method in brief: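 AlphaScreen detection of biotin-poly(Glu4:Tyr1) phosphorylation by 1.5 ng recombinant FLT3 (10 μM ATP, pH 7.0 MOPS, 10 mM MgCl2; 30 °C, 30 min, EDTA quench). IC50 values derived from serially diluted compound tested in duplicate.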

[2] = target: T2, PDGFRα kinase (Homo sapiens, UniProt P16234); experiment: PDGFRα kinase assay (AlphaScreen); assay type: biochemical; details: read-out: Ranking of IC50 values, PDGFRα
T2 construct: purchased SignalChem
T2 sequence (P16234 24-1089): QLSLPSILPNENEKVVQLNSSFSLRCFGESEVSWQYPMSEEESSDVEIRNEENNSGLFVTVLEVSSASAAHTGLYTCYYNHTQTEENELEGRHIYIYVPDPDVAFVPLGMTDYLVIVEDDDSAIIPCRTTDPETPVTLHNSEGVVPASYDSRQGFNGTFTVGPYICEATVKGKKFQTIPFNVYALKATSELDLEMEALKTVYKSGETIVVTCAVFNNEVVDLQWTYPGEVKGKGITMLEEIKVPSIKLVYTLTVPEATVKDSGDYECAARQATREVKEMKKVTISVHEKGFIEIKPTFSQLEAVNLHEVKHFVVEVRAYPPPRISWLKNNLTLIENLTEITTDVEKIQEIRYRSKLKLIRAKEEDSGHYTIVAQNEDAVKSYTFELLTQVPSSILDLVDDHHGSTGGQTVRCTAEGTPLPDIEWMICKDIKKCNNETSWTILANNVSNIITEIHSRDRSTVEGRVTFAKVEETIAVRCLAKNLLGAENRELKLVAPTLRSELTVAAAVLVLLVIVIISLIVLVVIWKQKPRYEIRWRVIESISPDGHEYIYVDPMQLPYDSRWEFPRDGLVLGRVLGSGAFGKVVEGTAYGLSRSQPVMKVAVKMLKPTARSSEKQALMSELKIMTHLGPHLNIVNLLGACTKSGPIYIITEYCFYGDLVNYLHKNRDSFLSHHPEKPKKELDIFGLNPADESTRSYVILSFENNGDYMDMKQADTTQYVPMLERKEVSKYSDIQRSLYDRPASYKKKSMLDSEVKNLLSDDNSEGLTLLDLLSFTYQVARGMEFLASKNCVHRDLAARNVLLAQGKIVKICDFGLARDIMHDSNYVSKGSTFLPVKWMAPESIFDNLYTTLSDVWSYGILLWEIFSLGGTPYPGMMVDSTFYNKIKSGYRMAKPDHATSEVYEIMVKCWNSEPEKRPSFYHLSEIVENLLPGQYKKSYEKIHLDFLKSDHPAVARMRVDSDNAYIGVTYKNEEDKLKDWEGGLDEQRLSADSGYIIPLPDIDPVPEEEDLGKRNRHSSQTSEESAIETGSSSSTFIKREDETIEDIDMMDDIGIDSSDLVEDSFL
Procedure: Inhibition of PDGFRα kinase activity by a test compound disclosed herein was estimated by AlphaScreen (PerkinElmer). Standard assay conditions were 1.5 ng of recombinant PDGFRα kinase (SignalChem) with 6 ng Biotin-conjugated Poly-(Glu 4: Tyr 1) (Cisbio) in the assay buffer (10 μM ATP, 10 mM MOPs, pH 7.0, 0.21 mM EDTA, 0.5% glycerol, 1 mg/mL BSA, 0.01% 2-mercaptoethanol, 0.001% Brij35, 10 mM MgCl2) in a final volume of 25 μL. Reactions were incubated at 30° C. for 30 min and stopped by adding […] of 50 mM EDTA. Analysis of resulting product using an AlphaScreen kit and counted with Enspire Alpha (PerkinElmer). […] The IC50 values of inhibitors were determined after carrying out assays with each compound at serially diluted concentrations in duplication. The results were analyzed using linear regression software (GraphPad Prism 5; GraphPad Software Inc.)

[3] = test system: phosphorylation of FLT3 and its down-stream effector STAT5; experiment: Western blotting of p-FLT3 and p-STAT5 in MV4-11 cells; assay type: cell-based; details: Homo sapiens; at 30 nM treatment, 3 hours, FLT3-ITD positive MV4-11 leukemia cells; read-out: inhibition activity against phosphorylation of FLT3 and its down-stream effector STAT5
Procedure: The potent compounds of formula (I) in EXAMPLE 2 were evaluated, by western blotting assay, for their cellular potencies against phosphorylation of FLT3 and its down-stream effector STAT5 in MV4-11 leukemia cell line with constitutive activation of FLT3 signaling. For western blotting experiments, MV4-11 cells were cultured in IMDM medium containing 0.1% FBS overnight. On the assay day, three million cells were treated with or without compounds for 3 hours in 15 mL tubes. Then, the whole cell lysates were harvested, following extraction by adding 2×SDS Sample Buffer and boiling on hot plate at 105° C. for 15 minutes. The resulting cell lysates were separated by SDS-PAGE electrophoresis and transferred to PVDF membrane. Protein expression was detected using immunoblot with corresponding primary antibody and secondary antibody following the standard procedures. Antibody against p-FLT3 (Tyr-591), anti-rabbit IgG HRP-linked secondary antibody, and anti-mouse IgG HRP-linked secondary antibody were purchased from Cell Signaling Technology. Antibody against p-STAT5 (Tyr-694) was purchased from BD biosciences. Antibody against actin was purchased from R&D system. […] Band intensities of western blot were also quantified by ChemiDoc™ MP Imaging System. Relative intensities of bandscorresponding to drug treatments at a single concentration (30 nM) were compared to the DMSO control group. The percentage (%) inhibition at each drug concentration was calculated using the formula: Percentage(%)inhibition=(1−Relative intensity)×100.

| SMILES | IC50 [1] [nM] | IC50 [2] [nM] | inhibition at 0.03 µM [3] [%] |
| --- | --- | --- | --- |
| Cn1ncc2ccc(-c3n[nH]c4c3Cc3sc(-c5ccc(CN6CCOCC6)nc5)cc3-4)cc21 [Compound 10, 4-((5-(3-(1-methyl-1H-indazol-6-yl)-1,4-dihydro-thieno[2′,3′:4,5]cyclopenta [1,2-c]pyrazol-6-yl)pyridin-2-yl)methyl)morpholine] | < 1 | 1 to 10 | > 50 |
| C[C@@H]1CN(Cc2cccc(-c3cc4c(s3)Cc3c(-c5ccc6cnn(C)c6c5)n[nH]c3-4)c2)C[C@H](C)O1 [Compound 12, (2S,6R)-2,6-dimethyl-4-(3-(3-(1-methyl-1H-indazol-6-yl)-1,4-dihydrothieno [2′,3′:4,5]cyclopenta[1,2-c]pyrazol-6-yl)benzyl) morpholine] | 1 to 10 | 30 to 100 | > 50 |
| Cn1ncc2ccc(-c3n[nH]c4c3Cc3sc(-c5cccc(CN6CCOCC6)c5)cc3-4)cc21 [Compound 13, 4-(3-(3-(1-methyl-1H-indazol-6-yl)-1,4-dihydro-thieno[2′,3′:4,5]cyclopenta [1,2-c]pyrazol-6-yl)benzyl) morpholine] | 1 to 10 | 10 to 30 | > 50 |
| CN1CCN(C(=O)c2ccc(-c3cc4c(s3)Cc3c(-c5ccc6cnn(C)c6c5)n[nH]c3-4)cc2)CC1 [Compound 15, (4-(3-(1-methyl-1H-indazol-6-yl)-1,4-dihydrothieno[2′,3′:4,5]cyclopenta[1,2-c]pyrazol-6-yl)phenyl)(4-methyl-piperazin-1-yl)methanone] | < 1 | 1 to 10 | > 50 |
| C[C@@H]1CN(Cc2ccc(-c3cc4c(s3)Cc3c(-c5ccc6cn[nH]c6c5)n[nH]c3-4)cn2)C[C@H](C)O1 [Compound 16, (2R,6S)-4-((5-(3-(1H-indazol-6-yl)-1,4-dihydro-thieno[2′,3′:4,5]cyclopenta [1,2-c]pyrazol-6-yl)pyridin-2-yl)methyl)-2,6-dimethylmorpholine] | < 1 | 1 to 10 | > 50 |
| Cc1cc(-c2cc3c(s2)Cc2c(-c4ccc5cnn(C)c5c4)n[nH]c2-3)ccn1 [Compound 17, 3-(1-methyl-1H-indazol-6-yl)-6-(2-methylpyridin-4-yl)-1,4-dihydrothieno [2′,3′:4,5]cyclopenta[1,2-c] pyrazole] | 1 to 10 | 10 to 30 | > 50 |
| c1cc(CN2CCOCC2)ncc1-c1cc2c(s1)Cc1c(-c3ccc4cn[nH]c4c3)n[nH]c1-2 [Compound 18, 4-((5-(3-(1H-indazol-6-yl)-1,4-dihydrothieno[2′,3′:4,5]cyclopenta[1,2-c]pyrazol-6-yl)pyridin-2-yl)methyl) morpholine] | < 1 | 1 to 10 | > 50 |
| C[C@@H]1CN(C(=O)c2ccc(-c3cc4c(s3)Cc3c(-c5ccc6cnn(C)c6c5)n[nH]c3-4)cc2)C[C@H](C)O1 [Compound 19, ((2S,6R)-2,6-dimethyl-morpholino)(4-(3-(1-methyl-1H-indazol-6-yl)-1,4-dihydrothieno[2′,3′:4,5]cyclopenta[1,2-c]pyrazol-6-yl)phenyl)methanone] | 1 to 10 | 1 to 10 | > 50 |
| CC(c1ccc(-c2cc3c(s2)Cc2c(-c4ccc5cnn(C)c5c4)n[nH]c2-3)cc1)N1CCOCC1 (stereo not drawn) [Compound 20, 4-(1-(4-(3-(1-methyl-1H-indazol-6-yl)-1,4-dihydro-thieno[2′,3′:4,5]cyclopenta [1,2-c]pyrazol-6-yl)phenyl)ethyl)morpholine] | 1 to 10 | 1 to 10 | > 50 |
| Cn1ncc2ccc(-c3n[nH]c4c3Cc3sc(-c5ccc(C(=O)N6CCOCC6)cc5)cc3-4)cc21 [Compound 21, (4-(3-(1-methyl-1H-indazol-6-yl)-1,4-dihydro-thieno[2′,3′:4,5]cyclopenta [1,2-c]pyrazol-6-yl)phenyl) (morpholino)methanone] | < 1 | 1 to 10 | > 50 |
